# Results from ChEMBL document CHEMBL1201862, “PubChem BioAssay data set” (2004).
#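 Interpolation was linear, between the two tested concentrations surrounding the appropriate level; five concentrations were tested over 48 hours in 96-well plates. At the GI50, growth is halved.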 Activity calls are given as the source filed them. No stated cut-off is given here; in the data, active = GI50 up to about 1.1 µM and inactive = higher.
# Columns and labels:
# Test in all cases: NCI tumour cell line growth inhibition, 48 h
# [1] = tested on: 786-0
# [2] = tested on: A498
# [3] = tested on: A549
# [4] = tested on: ACHN
# [5] = tested on: BT-549
# [6] = tested on: CAKI-1
# [7] = tested on: CCRF-CEM
# [8] = tested on: COLO 205
# [9] = tested on: DU-145
# [10] = tested on: EKVX
# [11] = tested on: HCC 2998
# [12] = tested on: HCT-116
# [13] = tested on: HCT-15
# [14] = tested on: HL-60
# [15] = tested on: HOP-62
# [16] = tested on: HOP-92
# [17] = tested on: HT-29
# [18] = tested on: Hs-578T
# [19] = tested on: IGROV-1
# [20] = tested on: K562
# [21] = tested on: KM12
# [22] = tested on: LOX IMVI
# [23] = tested on: M14
# [24] = tested on: MCF7
# [25] = tested on: MDA-MB-231
# [26] = tested on: MDA-MB-435
# [27] = tested on: MDA-N
# [28] = tested on: MOLT-4
# [29] = tested on: Malme-3M
# [30] = tested on: NCI-H226
# [31] = tested on: NCI-H23
# [32] = tested on: NCI-H460
# [33] = tested on: NCI-H522
# [34] = tested on: NCI/ADR-RES
# [35] = tested on: OVCAR-3
# [36] = tested on: OVCAR-4
# [37] = tested on: OVCAR-5
# [38] = tested on: OVCAR-8
# [39] = tested on: PC-3
# [40] = tested on: RPMI-8226
# [41] = tested on: RXF 393
# [42] = tested on: SF-268
# [43] = tested on: SF-295
# [44] = tested on: SF-539
# [45] = tested on: SK-MEL-28
# [46] = tested on: SK-MEL-2
# [47] = tested on: SK-MEL-5
# [48] = tested on: SK-OV-3
# [49] = tested on: SN12C
# [50] = tested on: SNB-19
# [51] = tested on: SNB-75
# [52] = tested on: SR
# [53] = tested on: SW-620
# [54] = tested on: T47D
# [55] = tested on: TK-10
# [56] = tested on: U-251
# [57] = tested on: UACC-257
# [58] = tested on: UACC-62
# [59] = tested on: UO-31
structure (smiles),measurement,setting,value
COc1ccc(N2C(=O)C3c4[nH]c5ccc([N+](=O)[O-])cc5c4C4CCC(C(C)(C)C)CC4C3C2=O)cc1 (stereo not drawn),GI50,[1],11.4 µM (inactive)
same,GI50,[2],2.26 µM (inactive)
same,GI50,[3],6.28 µM (inactive)
same,GI50,[4],9.75 µM (inactive)
same,GI50,[5],14.5 µM (inactive)
same,GI50,[6],18.3 µM (inactive)
same,GI50,[7],4.51 µM (inactive)
same,GI50,[8],4.82 µM (inactive)
same,GI50,[9],32.8 µM (inactive)
same,GI50,[10],15.5 µM (inactive)
same,GI50,[11],10.9 µM (inactive)
same,GI50,[12],3.24 µM (inactive)
same,GI50,[13],14.4 µM
same,GI50,[14],8.02 µM (inactive)
same,GI50,[15],24.4 µM (inactive)
same,GI50,[16],6.9 µM (inactive)
same,GI50,[17],3.96 µM (inactive)
same,GI50,[18],25.4 µM (inactive)
same,GI50,[19],7.66 µM (inactive)
same,GI50,[20],2.52 µM (inactive)
same,GI50,[21],6.5 µM (inactive)
same,GI50,[22],15.2 µM (inactive)
same,GI50,[23],14.8 µM (inactive)
same,GI50,[24],4.45 µM (inactive)
same,GI50,[25],5.18 µM (inactive)
same,GI50,[26],18.7 µM (inactive)
same,GI50,[27],20.3 µM (inactive)
same,GI50,[28],14.3 µM (inactive)
same,GI50,[29],28.4 µM (inactive)
same,GI50,[30],28 µM (inactive)
same,GI50,[31],6.53 µM (inactive)
same,GI50,[32],2.15 µM (inactive)
same,GI50,[33],19.9 µM (inactive)
same,GI50,[34],9.62 µM (inactive)
same,GI50,[35],7.29 µM (inactive)
same,GI50,[36],14.8 µM (inactive)
same,GI50,[37],18.5 µM (inactive)
same,GI50,[38],23.6 µM (inactive)
same,GI50,[39],5.21 µM (inactive)
same,GI50,[40],13.3 µM (inactive)
same,GI50,[41],3.33 µM (inactive)
same,GI50,[42],10.1 µM (inactive)
same,GI50,[43],13.7 µM (inactive)
same,GI50,[44],15.2 µM (inactive)
same,GI50,[45],61.7 µM (inactive)
same,GI50,[46],26.1 µM (inactive)
same,GI50,[47],12.4 µM (inactive)
same,GI50,[48],> 100 µM (inactive)
same,GI50,[49],15.2 µM (inactive)
same,GI50,[50],35.7 µM (inactive)
same,GI50,[51],7.28 µM (inactive)
same,GI50,[52],3.72 µM (inactive)
same,GI50,[53],37.1 µM (inactive)
same,GI50,[54],27.5 µM (inactive)
same,GI50,[55],25.2 µM (inactive)
same,GI50,[56],19.3 µM (inactive)
same,GI50,[57],35.2 µM (inactive)
same,GI50,[58],24 µM (inactive)
same,GI50,[59],16.3 µM (inactive)
CC(=O)n1nc(-c2nc3ccccc3nc2Cl)cc1Cl,GI50,[1],23.6 µM (inactive)
same,GI50,[2],> 71.4 µM (inactive)
same,GI50,[3],29.5 µM (inactive)
same,GI50,[4],11.6 µM (inactive)
same,GI50,[5],5.89 µM (inactive)
same,GI50,[6],3.34 µM (inactive)
same,GI50,[7],2.45 µM (inactive)
same,GI50,[8],18.4 µM (inactive)
same,GI50,[9],20.6 µM (inactive)
same,GI50,[10],12.5 µM (inactive)
same,GI50,[11],36.6 µM (inactive)
same,GI50,[12],3.78 µM (inactive)
same,GI50,[13],11.2 µM
same,GI50,[14],8.02 µM (inactive)
same,GI50,[15],20.3 µM (inactive)
same,GI50,[16],> 69.8 µM (inactive)
same,GI50,[17],23 µM (inactive)
same,GI50,[18],34.5 µM (inactive)
same,GI50,[19],30.1 µM (inactive)
same,GI50,[20],3.61 µM (inactive)
same,GI50,[21],19.4 µM (inactive)
same,GI50,[22],5.47 µM (inactive)
same,GI50,[23],4.43 µM (inactive)
same,GI50,[24],26.9 µM (inactive)
same,GI50,[25],28.8 µM (inactive)
same,GI50,[26],3.94 µM (inactive)
same,GI50,[27],8.36 µM (inactive)
same,GI50,[28],1.9 µM (inactive)
same,GI50,[29],23.4 µM (inactive)
same,GI50,[30],10.3 µM (inactive)
same,GI50,[31],6.24 µM (inactive)
same,GI50,[32],32.8 µM (inactive)
same,GI50,[33],7.78 µM (inactive)
same,GI50,[34],22.3 µM (inactive)
same,GI50,[35],19.8 µM (inactive)
same,GI50,[36],19.5 µM (inactive)
same,GI50,[37],34.7 µM (inactive)
same,GI50,[38],26.4 µM (inactive)
same,GI50,[39],30.9 µM (inactive)
same,GI50,[40],13.6 µM (inactive)
same,GI50,[41],40.7 µM (inactive)
same,GI50,[42],38.6 µM (inactive)
same,GI50,[43],29.6 µM (inactive)
same,GI50,[44],2.88 µM (inactive)
same,GI50,[45],24.7 µM (inactive)
same,GI50,[46],25.6 µM (inactive)
same,GI50,[47],4.68 µM (inactive)
same,GI50,[48],20.5 µM (inactive)
same,GI50,[49],7.78 µM (inactive)
same,GI50,[50],30.5 µM (inactive)
same,GI50,[51],25.8 µM (inactive)
same,GI50,[52],3.34 µM (inactive)
same,GI50,[53],2.88 µM (inactive)
same,GI50,[54],68.4 µM (inactive)
same,GI50,[55],37.4 µM (inactive)
same,GI50,[56],26.3 µM (inactive)
same,GI50,[57],> 68.1 µM (inactive)
same,GI50,[58],27.2 µM (inactive)
same,GI50,[59],1.39 µM (inactive)
